Data as given in US12077503B2, “Substituted cyclic amides and their use as herbicides” (FMC CORPORATION, priority 2015, dated 2024).

Key:
Type in all cases: in vivo
[1] = tested on: barnyardgrass (Echinochloa crus-galli); experiment: Test G Post-Emergence Protocol; conditions: Echinochloa crus-galli, post-emergence, 312 h, read-out: Barnyardgrass damage rating; for pest or weed control at 15.625 g/ha: 15.625 g ai/ha, evaluated after 13 days (100=total damage to plant; 0=no damage to plant); for pest or weed control at 62.5 g/ha: 62.5 g ai/ha; for pest or weed control at 62.5 g/ha / pest or weed control at 250 g/ha: evaluated after 13 days, 100=total damage to plant, 0=no damage to plant; for pest or weed control at 250 g/ha: 250 g ai/ha
Summary of the method: (§1)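 Seedlings grown 8 days in soil in a glasshouse (24/16 °C day/night, 14 h light, 65% humidity) were sprayed post-emergence with compound in acetone/water 50:50 plus 0.5% Tween 20 at 15.625, 62.5 or 250 g/ha. Damage was scored after 13 days on a 0–100 scale (100 = total damage).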

[2] = tested on: redroot pigweed (Amaranthus retroflexus); experiment: Test G Post-Emergence Protocol; conditions: Amaranthus retroflexus, post-emergence, 312 h, read-out: Pigweed, Redroot damage rating; for pest or weed control at 15.625 g/ha: 15.625 g ai/ha, evaluated after 13 days (100=total damage to plant; 0=no damage to plant); for pest or weed control at 62.5 g/ha: 62.5 g ai/ha; for pest or weed control at 62.5 g/ha / pest or weed control at 250 g/ha: evaluated after 13 days, 100=total damage to plant, 0=no damage to plant; for pest or weed control at 250 g/ha: 250 g ai/ha
Summary of the method: as §1

corn (Zea mays) [3] = experiment: Test G Post-Emergence Protocol; conditions: Zea mays, post-emergence, 312 h, read-out: Corn damage rating; for plant injury at 15.625 g/ha: 15.625 g ai/ha, evaluated after 13 days (100=total damage to plant; 0=no damage to plant); for plant injury at 62.5 g/ha: 62.5 g ai/ha; for plant injury at 62.5 g/ha / plant injury at 250 g/ha: evaluated after 13 days, 100=total damage to plant, 0=no damage to plant; for plant injury at 250 g/ha: 250 g ai/ha
Summary of the method: as §1

[4] = tested on: velvetleaf (Abutilon theophrasti); experiment: Test G Post-Emergence Protocol; conditions: Abutilon theophrasti, post-emergence, 312 h, read-out: Velvetleaf damage rating; for pest or weed control at 15.625 g/ha: 15.625 g ai/ha, evaluated after 13 days (100=total damage to plant; 0=no damage to plant); for pest or weed control at 62.5 g/ha: 62.5 g ai/ha; for pest or weed control at 62.5 g/ha / pest or weed control at 250 g/ha: evaluated after 13 days, 100=total damage to plant, 0=no damage to plant; for pest or weed control at 250 g/ha: 250 g ai/ha
Summary of the method: as §1

[5] = tested on: ivy-leaved morning glory (Ipomoea hederacea); experiment: Test G Post-Emergence Protocol; conditions: Ipomoea, post-emergence, 312 h, read-out: Morningglory, Ivy-leaved damage rating; for pest or weed control at 15.625 g/ha: 15.625 g ai/ha, evaluated after 13 days (100=total damage to plant; 0=no damage to plant); for pest or weed control at 62.5 g/ha: 62.5 g ai/ha; for pest or weed control at 62.5 g/ha / pest or weed control at 250 g/ha: evaluated after 13 days, 100=total damage to plant, 0=no damage to plant; for pest or weed control at 250 g/ha: 250 g ai/ha
Summary of the method: as §1

[6] = tested on: giant foxtail (Setaria faberi); experiment: Test G Post-Emergence Protocol; conditions: Setaria faberi, post-emergence, 312 h, read-out: Foxtail, Giant damage rating; for pest or weed control at 15.625 g/ha: 15.625 g ai/ha, evaluated after 13 days (100=total damage to plant; 0=no damage to plant); for pest or weed control at 62.5 g/ha: 62.5 g ai/ha; for pest or weed control at 62.5 g/ha / pest or weed control at 250 g/ha: evaluated after 13 days, 100=total damage to plant, 0=no damage to plant; for pest or weed control at 250 g/ha: 250 g ai/ha
Summary of the method: as §1

[7] = tested on: barnyardgrass (Echinochloa crus-galli); experiment: Test G Pre-Emergence Protocol; conditions: Echinochloa crus-galli, pre-emergence, 312 h, evaluated after 13 days; for pest or weed control at 15.625 g/ha: 15.625 g ai/ha; for pest or weed control at 15.625 g/ha / pest or weed control at 250 g/ha: read-out: Barnyardgrass damage rating (100=total damage to plant; 0=no damage to plant); for pest or weed control at 62.5 g/ha: 62.5 g ai/ha, 100=total damage to plant, 0=no damage to plant, read-out: Barnyardgrass damage rating; for pest or weed control at 250 g/ha: 250 g ai/ha
Summary of the method: (§2)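 Pots of seeds in standard soil were grown for one day in a glasshouse (24/16 °C day/night, 14 h light, 65% humidity), then sprayed with compound in acetone/water 50:50 with 0.5% Tween 20 at 15.625, 62.5 or 250 g/ha. Damage was scored after 13 days on a 0 (none) to 100 (total) scale.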

[8] = tested on: redroot pigweed (Amaranthus retroflexus); experiment: Test G Pre-Emergence Protocol; conditions: Amaranthus retroflexus, pre-emergence, 312 h, evaluated after 13 days; for pest or weed control at 15.625 g/ha: 15.625 g ai/ha; for pest or weed control at 15.625 g/ha / pest or weed control at 250 g/ha: read-out: Pigweed, Redroot damage rating (100=total damage to plant; 0=no damage to plant); for pest or weed control at 62.5 g/ha: 62.5 g ai/ha, 100=total damage to plant, 0=no damage to plant, read-out: Pigweed, Redroot damage rating; for pest or weed control at 250 g/ha: 250 g ai/ha
Summary of the method: as §2

corn (Zea mays) [9] = experiment: Test G Pre-Emergence Protocol; conditions: Zea mays, pre-emergence, 312 h, evaluated after 13 days; for plant injury at 15.625 g/ha: 15.625 g ai/ha; for plant injury at 15.625 g/ha / plant injury at 250 g/ha: read-out: Corn damage rating (100=total damage to plant; 0=no damage to plant); for plant injury at 62.5 g/ha: 62.5 g ai/ha, 100=total damage to plant, 0=no damage to plant, read-out: Corn damage rating; for plant injury at 250 g/ha: 250 g ai/ha
Summary of the method: as §2

[10] = tested on: velvetleaf (Abutilon theophrasti); experiment: Test G Pre-Emergence Protocol; conditions: Abutilon theophrasti, pre-emergence, 312 h, evaluated after 13 days; for pest or weed control at 15.625 g/ha: 15.625 g ai/ha; for pest or weed control at 15.625 g/ha / pest or weed control at 250 g/ha: read-out: Velvetleaf damage rating (100=total damage to plant; 0=no damage to plant); for pest or weed control at 62.5 g/ha: 62.5 g ai/ha, 100=total damage to plant, 0=no damage to plant, read-out: Velvetleaf damage rating; for pest or weed control at 250 g/ha: 250 g ai/ha
Summary of the method: as §2

[11] = tested on: ivy-leaved morning glory (Ipomoea hederacea); experiment: Test G Pre-Emergence Protocol; conditions: Ipomoea, pre-emergence, 312 h, evaluated after 13 days; for pest or weed control at 15.625 g/ha: 15.625 g ai/ha; for pest or weed control at 15.625 g/ha / pest or weed control at 250 g/ha: read-out: Morningglory, Ivy-leaved damage rating (100=total damage to plant; 0=no damage to plant); for pest or weed control at 62.5 g/ha: 62.5 g ai/ha, 100=total damage to plant, 0=no damage to plant, read-out: Morningglory, Ivy-leaved damage rating; for pest or weed control at 250 g/ha: 250 g ai/ha
Summary of the method: as §2

[12] = tested on: giant foxtail (Setaria faberi); experiment: Test G Pre-Emergence Protocol; conditions: Setaria faberi, pre-emergence, 312 h, evaluated after 13 days; for pest or weed control at 15.625 g/ha: 15.625 g ai/ha; for pest or weed control at 15.625 g/ha / pest or weed control at 250 g/ha: read-out: Foxtail, Giant damage rating (100=total damage to plant; 0=no damage to plant); for pest or weed control at 62.5 g/ha: 62.5 g ai/ha, 100=total damage to plant, 0=no damage to plant, read-out: Foxtail, Giant damage rating; for pest or weed control at 250 g/ha: 250 g ai/ha
Summary of the method: as §2

| SMILES | pest or weed control at 15.625 g/ha [1] [%] | pest or weed control at 62.5 g/ha [1] [%] | pest or weed control at 250 g/ha [1] [%] | pest or weed control at 15.625 g/ha [2] [%] | pest or weed control at 62.5 g/ha [2] [%] | pest or weed control at 250 g/ha [2] [%] | plant injury at 15.625 g/ha (corn (Zea mays) [3]) [%] | plant injury at 62.5 g/ha (corn (Zea mays) [3]) [%] | plant injury at 250 g/ha (corn (Zea mays) [3]) [%] | pest or weed control at 15.625 g/ha [4] [%] | pest or weed control at 62.5 g/ha [4] [%] | pest or weed control at 250 g/ha [4] [%] | pest or weed control at 15.625 g/ha [5] [%] | pest or weed control at 62.5 g/ha [5] [%] | pest or weed control at 250 g/ha [5] [%] | pest or weed control at 15.625 g/ha [6] [%] | pest or weed control at 62.5 g/ha [6] [%] | pest or weed control at 250 g/ha [6] [%] | pest or weed control at 15.625 g/ha [7] [%] | pest or weed control at 62.5 g/ha [7] [%] | further results |
| --- | --- | --- | --- | --- | --- | --- | --- | --- | --- | --- | --- | --- | --- | --- | --- | --- | --- | --- | --- | --- | --- |
| CN1C[C@@H](c2ccc(C(F)(F)F)cc2)[C@H](C(=O)Nc2ccncc2F)C1=O (racemic) [Compound 1652] | 0 | 20 | 30 | 0 | 0 | 0 | 0 | 0 | 0 | 0 | 0 | 0 | 0 | 0 | 0 | 0 | 20 | 40 | 0 | 0 | pest or weed control at 250 g/ha [7]: 0%; pest or weed control at 15.625 g/ha [8]: 0%; pest or weed control at 62.5 g/ha [8]: 0%; pest or weed control at 250 g/ha [8]: 0%; plant injury at 15.625 g/ha (corn (Zea mays) [9]): 0%; plant injury at 62.5 g/ha (corn (Zea mays) [9]): 0%; plant injury at 250 g/ha (corn (Zea mays) [9]): 10%; pest or weed control at 15.625 g/ha [10]: 0%; pest or weed control at 62.5 g/ha [10]: 0%; pest or weed control at 250 g/ha [10]: 0%; pest or weed control at 15.625 g/ha [11]: 0%; pest or weed control at 62.5 g/ha [11]: 0%; pest or weed control at 250 g/ha [11]: 0%; pest or weed control at 15.625 g/ha [12]: 0%; pest or weed control at 62.5 g/ha [12]: 10%; pest or weed control at 250 g/ha [12]: 30% |
| CN1C[C@H](c2ccc(C(F)(F)F)cc2)[C@@H](C(=O)Nc2cccc(F)c2S(C)(=O)=O)C1=O (racemic) [Compound 1680] | 20 | 20 | 50 | 50 | 60 | 60 | 0 | 0 | 0 | 0 | 10 | 0 | 10 | 10 | 20 | 30 | 80 | 80 | 0 | 20 | pest or weed control at 250 g/ha [7]: 60%; pest or weed control at 15.625 g/ha [8]: 20%; pest or weed control at 62.5 g/ha [8]: 20%; pest or weed control at 250 g/ha [8]: 70%; plant injury at 15.625 g/ha (corn (Zea mays) [9]): 0%; plant injury at 62.5 g/ha (corn (Zea mays) [9]): 0%; plant injury at 250 g/ha (corn (Zea mays) [9]): 0%; pest or weed control at 15.625 g/ha [10]: 10%; pest or weed control at 62.5 g/ha [10]: 10%; pest or weed control at 250 g/ha [10]: 90%; pest or weed control at 15.625 g/ha [11]: 0%; pest or weed control at 62.5 g/ha [11]: 0%; pest or weed control at 250 g/ha [11]: 0%; pest or weed control at 15.625 g/ha [12]: 20%; pest or weed control at 62.5 g/ha [12]: 60%; pest or weed control at 250 g/ha [12]: 90% |
